Consider 19 compounds from US20260042755A1, “GPR6 INVERSE AGONISTS” (MapLight Therapeutics, Inc., priority 2022, published 2026).

Experiment [1] concerns the target T1, GPR6 (Homo sapiens, UniProt P46095).
T1 construct: expressed in transfected cells; host or cells: CHO cells
Description: GPR6 antagonist functional cAMP assay (LANCE Ultra cAMP TR-FRET, CHO cells stably expressing GPR6). As to conditions: procedure of Example 24. Format: cell-based. The gist of the method:
(§1)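 Cells in Krebs-Ringer buffer with 0.1% BSA and 150 μM Ro 20-1724 PDE inhibitor were exposed to compounds for 45 min at 37 °C (0.1% DMSO). cAMP was read by TR-FRET at 665 nm; IC50s came from 4-parameter fits normalized to DMSO and reference compound.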

Experiment [2] deals with T2, GPR3 (Homo sapiens, UniProt P46089).
T2 construct: expressed in transfected cells; host or cells: CHO cells
T2 sequence (P46089 whole entry, species assumed): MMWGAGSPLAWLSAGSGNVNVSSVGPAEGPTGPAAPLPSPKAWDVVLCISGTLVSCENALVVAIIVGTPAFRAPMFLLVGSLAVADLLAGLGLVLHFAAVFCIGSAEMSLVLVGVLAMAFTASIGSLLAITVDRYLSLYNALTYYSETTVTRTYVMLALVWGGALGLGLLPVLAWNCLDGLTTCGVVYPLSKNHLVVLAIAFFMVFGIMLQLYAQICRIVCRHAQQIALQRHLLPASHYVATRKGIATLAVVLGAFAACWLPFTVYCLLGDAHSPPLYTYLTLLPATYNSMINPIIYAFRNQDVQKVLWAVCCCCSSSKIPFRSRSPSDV
Description: GPR3 antagonist functional cAMP assay (LANCE Ultra cAMP TR-FRET, CHO cells stably expressing GPR3). It counts as cell-based. As to conditions: procedure of Example 24. The gist of the method: as §1

T1 sequence (P46095 whole entry): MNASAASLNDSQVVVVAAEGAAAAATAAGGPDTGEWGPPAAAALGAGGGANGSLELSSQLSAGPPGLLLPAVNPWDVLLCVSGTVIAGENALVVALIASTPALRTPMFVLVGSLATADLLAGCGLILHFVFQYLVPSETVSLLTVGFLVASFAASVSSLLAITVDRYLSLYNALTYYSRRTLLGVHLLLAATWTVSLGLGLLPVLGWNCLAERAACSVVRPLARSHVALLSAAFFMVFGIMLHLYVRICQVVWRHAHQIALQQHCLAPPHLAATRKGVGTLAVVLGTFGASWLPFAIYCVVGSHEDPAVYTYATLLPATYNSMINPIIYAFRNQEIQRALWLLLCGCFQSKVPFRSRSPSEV

Turning to `CN(C)C(=O)N1CCc2nc(N3CCC(Oc4ccc(F)cc4F)CC3)c(-c3ccc(F)c(N)n3)nc2C1` [Compound 629, 6-{6-(N,N-dimethylcarbamoyl)-2-[4-(2,4-difluorophenoxy)-1-piperidyl]-5,6,7,8-tetrahydro-1,4,6-triaza-3-naphthyl}-3-fluoro-2-pyridylamine], the IC50 in experiment [1] was below 0.1 µM; in experiment [2] it was 1 to 30 µM.

As to `CC(=O)N1CCc2nc(N3CCN(C(=O)c4ccc(F)cc4F)CC3)c(-c3cnn(C)c3)nc2C1` [Compound 630, 1-{2-[4-(2,4-difluorobenzoyl)-1-piperazinyl]-3-(1-methyl-4-pyrazolyl)-5,6,7,8-tetrahydro-1,4,6-triaza-6-naphthyl}-1-ethanone], the IC50 is 1 to 30 µM in experiment [1] and at least 30 µM in experiment [2].

With `CCn1cc(-c2nc3cnc(C(C)(O)C(C)(C)O)cc3nc2N2CCC(Oc3ccc(F)cc3F)CC2)cn1` (centres unmarked) [Compound 631, 2-{2-[4-(2,4-difluorophenoxy)-1-piperidyl]-3-(1-ethyl-4-pyrazolyl)-1,4,6-triaza-7-naphthyl}-3-methyl-2,3-butanediol], the IC50 in experiment [1] was in the range of 0.1 to 1 µM; in experiment [2], 1 to 30 µM.

As for `CC(C)(O)C(C)(O)c1cc2nc(N3CCC(Oc4ccc(F)cc4F)CC3)c(-c3cnn(C4CC4)c3)nc2cn1` (centres unmarked) [Compound 632, 2-{3-(1-cyclopropyl-4-pyrazolyl)-2-[4-(2,4-difluorophenoxy)-1-piperidyl]-1,4,6-triaza-7-naphthyl}-3-methyl-2,3-butanediol], the IC50 fell in the range of 0.1 to 1 µM in experiment [1] and 1 to 30 µM in experiment [2].

Take `CC(C)(O)C(C)(O)c1cc2nc(-c3cnn(C(F)F)c3)c(N3CCN(Cc4ccc(F)cc4F)CC3)nc2cn1` (centres unmarked) [Compound 633, 2-{2-[1-(difluoromethyl)-4-pyrazolyl]-3-{4-[(2,4-difluorophenyl)methyl]-1-piperazinyl}-1,4,6-triaza-7-naphthyl}-3-methyl-2,3-butanediol]: the 50% inhibitory concentration (IC50) in experiment [1] was below 0.1 µM; in experiment [2] it was 1 to 30 µM.

As for `CC(C)(O)C(C)(O)c1cc2nc(N3CCN(Cc4ccccc4F)CC3)c(-c3cnn(C(F)F)c3)nc2cn1` (centres unmarked) [Compound 634, 2-{3-[1-(difluoromethyl)-4-pyrazolyl]-2-{4-[(o-fluorophenyl)methyl]-1-piperazinyl}-1,4,6-triaza-7-naphthyl}-3-methyl-2,3-butanediol], the IC50 lay in the range of 0.1 to 1 µM in experiment [1] and 1 to 30 µM in experiment [2].

Consider `CC(C)(O)C(C)(O)c1cc2nc(N3CCC(Oc4ccc(F)cc4F)CC3)c(-c3cnn(C(F)F)c3)nc2cn1` (centres unmarked) [Compound 635, 2-{3-[1-(difluoromethyl)-4-pyrazolyl]-2-[4-(2,4-difluorophenoxy)-1-piperidyl]-1,4,6-triaza-7-naphthyl}-3-methyl-2,3-butanediol], for which the half-maximal inhibitory concentration (IC50) lay in the range of 0.1 to 1 µM in experiment [1] and 1 to 30 µM in experiment [2].

As for `CC(C)(O)C(C)(O)c1cc2nc(N3CCC(Oc4ccc(F)cc4F)CC3)c(-c3cnn(CF)c3)nc2cn1` (centres unmarked) [Compound 636, 2-{2-[4-(2,4-difluorophenoxy)-1-piperidyl]-3-[1-(fluoromethyl)-4-pyrazolyl]-1,4,6-triaza-7-naphthyl}-3-methyl-2,3-butanediol], the IC50 was 0.1 to 1 µM in experiment [1] and 1 to 30 µM in experiment [2].

In the case of `CC(=O)N1CCc2nc(N3CCN(Cc4ccc(Cl)cc4Cl)CC3)c(-c3ccc(F)c(N)n3)nc2C1` [Compound 637, 1-[3-(6-amino-5-fluoro-2-pyridyl)-2-{4-[(2,4-dichlorophenyl)methyl]-1-piperazinyl}-5,6,7,8-tetrahydro-1,4,6-triaza-6-naphthyl]-1-ethanone], the IC50 in experiment [1] is 0.1 to 1 µM; in experiment [2] it was 1 to 30 µM.

For the compound `CC(=O)N1CCc2nc(N3CCC(C(=O)c4ccc(F)cc4F)CC3)c(-c3ccc(F)c(N)n3)nc2C1` [Compound 638, 1-{3-(6-amino-5-fluoro-2-pyridyl)-2-[4-(2,4-difluorobenzoyl)-1-piperidyl]-5,6,7,8-tetrahydro-1,4,6-triaza-6-naphthyl}-1-ethanone], the values for the IC50 in experiment [1] and in experiment [2] were below 0.1 µM and 1 to 30 µM, respectively.

On to `CC(C)(O)C(=O)N1CCc2nc(N3CCC(Oc4ccc(F)cc4F)CC3)c(-c3ccc(F)c(N)n3)nc2C1` [Compound 639, 1-{3-(6-amino-5-fluoro-2-pyridyl)-2-[4-(2,4-difluorophenoxy)-1-piperidyl]-5,6,7,8-tetrahydro-1,4,6-triaza-6-naphthyl}-2-hydroxy-2-methyl-1-propanone], for which the IC50 in experiment [1] and in experiment [2] was 0.1 to 1 µM throughout.

On to `COCC(O)c1cc2nc(-c3cnn(C)c3)c(N3CCC(Oc4ccc(F)cc4F)CC3)nc2cn1` (centres unmarked) [Compound 644, 1-{3-[4-(2,4-difluorophenoxy)-1-piperidyl]-2-(1-methyl-4-pyrazolyl)-1,4,6-triaza-7-naphthyl}-2-methoxy-1-ethanol], for which the IC50 was below 0.1 µM in experiment [1] and 0.1 to 1 µM in experiment [2].

On to `Cn1cc(-c2nc3cc(C(C)(O)CO)ncc3nc2N2CCC(Oc3ccc(F)cc3F)CC2)cn1` (centres unmarked) [Compound 645, 2-{3-[4-(2,4-difluorophenoxy)-1-piperidyl]-2-(1-methyl-4-pyrazolyl)-1,4,6-triaza-7-naphthyl}-1,2-propanediol], for which the results for the half-inhibitory concentration (IC50) in experiment [1] and in experiment [2] were 0.1 to 1 µM and 1 to 30 µM, respectively.

`CC(=O)N1CCc2nc(N3CCC(=Cc4ccccc4)CC3)c(-c3cnn(C)c3)nc2C1` [Compound 646, 1-[2-(4-benzylidene-1-piperidyl)-3-(1-methyl-4-pyrazolyl)-5,6,7,8-tetrahydro-1,4,6-triaza-6-naphthyl]-1-ethanone]: the IC50 in experiment [1] fell in the range of 0.1 to 1 µM; in experiment [2] it was 1 to 30 µM.

Take `CCn1cc(-c2nc3cnc(C(=O)C(C)(C)O)cc3nc2N2CCC(Oc3ccc(F)cc3F)CC2)cn1` [Compound 651, 1-{2-[4-(2,4-difluorophenoxy)-1-piperidyl]-3-(1-ethyl-4-pyrazolyl)-1,4,6-triaza-7-naphthyl}-2-hydroxy-2-methyl-1-propanone]: the IC50 in experiment [1] lay within 0.1 to 1 µM; in experiment [2], 1 to 30 µM.

`COCC(C)(O)c1cc2nc(-c3cnn(C)c3)c(N3CCC(Oc4ccc(F)cc4F)CC3)nc2cn1` (centres unmarked) [Compound 652, 2-{3-[4-(2,4-difluorophenoxy)-1-piperidyl]-2-(1-methyl-4-pyrazolyl)-1,4,6-triaza-7-naphthyl}-1-methoxy-2-propanol]: the IC50 in experiment [1] was below 0.1 µM; in experiment [2], 1 to 30 µM.

For `CC(C)(O)C(C)(O)c1cc2nc(-c3cnn(C4CC4)c3)c(N3CCN(Cc4ccc(F)cc4F)CC3)nc2cn1` (centres unmarked) [Compound 653, 2-[2-(1-cyclopropyl-4-pyrazolyl)-3-{4-[(2,4-difluorophenyl)methyl]-1-piperazinyl}-1,4,6-triaza-7-naphthyl]-3-methyl-2,3-butanediol], the figures for the IC50 in experiment [1] and in experiment [2] were 0.1 to 1 µM and 1 to 30 µM, respectively.

For the compound `CCn1cc(-c2nc3cnc(C(C)(O)C(C)(C)O)cc3nc2N2CCN(Cc3ccc(F)cc3F)CC2)cn1` (centres unmarked) [Compound 654, 2-(2-{4-[(2,4-difluorophenyl)methyl]-1-piperazinyl}-3-(1-ethyl-4-pyrazolyl)-1,4,6-triaza-7-naphthyl)-3-methyl-2,3-butanediol], the IC50 is 0.1 to 1 µM in experiment [1] and 1 to 30 µM in experiment [2].

As for `CC(C)(O)C(C)(O)c1cc2nc(N3CCN(Cc4ccc(F)cc4F)CC3)c(-c3cnn(C(F)F)c3)nc2cn1` (centres unmarked) [Compound 657, 2-{3-[1-(difluoromethyl)-4-pyrazolyl]-2-{4-[(2,4-difluorophenyl)methyl]-1-piperazinyl}-1,4,6-triaza-7-naphthyl}-3-methyl-2,3-butanediol], the half-inhibitory concentration (IC50) in experiment [1] fell in the range of 0.1 to 1 µM; in experiment [2] it was 1 to 30 µM.
